Entries after “also recorded” stand apart in the source; their conditions may differ.
Assays:
[1] = test system: P. cynomolgi liver hypnozoites; conditions: radical cure mode, both in vitro and in vivo; cited from earlier work
P. vivax = test: 18S qRT-PCR analysis of liver parasite load in infected FRG huHep mice; format: in vivo, Plasmodium vivax; conditions: for parasite load, 18S rRNA in liver tissue by RT-qPCR: compared to DMSO
Description: (§1) All animal procedures were conducted in accordance with and approved by the Center for Infectious Disease Research Institutional Animal Care and Use Committee (IACUC). The Center for Infectious Disease Research IACUC adheres to the NIH Office of Laboratory Animal Welfare standards (OLAW welfare assurance #A3640-01). Female FRG KO mice engrafted with human hepatocytes (FRG KO huHep) were purchased from Yecuris Corporation (Oregon, USA). P. vivax infections of FRG huHEP were performed as previously described. Briefly, mice were divided in five experimental groups. Group 1 (3 mice) was not infected. Group 2 (6 mice) was inoculated with P. vivax sporozoites by the bite of 20 mosquitos and euthanized after 8 days post-infection (dpi). Group 3 (6 mice) was infected by intravenous injection of P. vivax sporozoites (0.8 million) and euthanized after 8 dpi. Group 4 (6 mice) was infected by intravenous injection of P. vivax sporozoites (1 million sporozoites) and euthanized after 21 dpi. Group 5 (3 mice) was infected by intravenous injection (1 million sporozoites) and treated with Tafenoquine (10 mg/kg) at 14 dpi and euthanized at 21 dpi. MMV048 (Novartis) mice treatment (30 mg/kg) was performed as follows: three mice from Groups 2 and 3 received intravenous injections of the drug at 4 dpi; three mice from Group 4 received intravenous injections of the drug at 17 dpi. Three DMSO-treated animals were used as controls in groups 2, 3 and 4. After euthanasia, livers were extracted for characterization by IFA and RT-qPCR and whole blood was extracted by cardiac venipuncture for plasma collection as previously described (Schafer C, et al. A recombinant antibody against Plasmodium vivax UIS4 for distinguishing replicating from dormant liver stages. Malar J 17, 370 (2018)).
Liver parasite load from infected FRG huHEP mice was quantified as previously described (Flannery E L, et al. Assessing drug efficacy against Plasmodium falciparum liver stages in vivo. JCI Insight 3, (2018)).

[2] = test system: P. vivax liver stages in PHH; test: P. vivax infection of primary human hepatocytes (PHH), quantification of extraerythrocytic forms by IFA; format: cell-based, Plasmodium vivax; conditions: 0.1 μM after day 3 post-infection, fixed day 6
Description: Primary human hepatocytes (BioIVT) were plated and infected in chamber slides as previously described (Schafer C, et al. A Humanized Mouse Model for Plasmodium vivax to Test Interventions that Block Liver Stage to Blood Stage Transition and Blood Stage Infection. […] 23, 101381 (2020)). Briefly, 8-well PermanoxTM slides (LabTek) were coated with collagen (Advanced Biomatrix) and seeded with 1.25×10^5 viable cells using InVitroGROTM CP medium (BioIVT) supplemented with 2% FBS without antibiotics (plating media). Four hours later, plating media was replaced with InVitroGROTM CP containing antibiotics (1× Torpedo Antibiotic Mix with 10 μM gentamycin) without serum (maintenance media). Two days after plating, cells were infected with freshly dissected P. vivax salivary gland sporozoites (MOI=1.0) for four hours in maintenance media supplemented with 20% FBS. Cells were washed once, and maintenance media replaced daily thereafter and stored at -80° C. for EV analysis. After day 3 post-infection, cultures were treated with 0.1 μM MMV048 or 0.1% DMSO as vehicle (FIG. 5). On day 6-post infection, cells were fixed and analyzed by IFA. Total extraerythrocytic forms (EEF) and schizont/hypnozoite numbers and ratio were quantified. IFA analysis of PHH and liver sections of FRG huHep mice was performed as described (Schafer C, et al. A Humanized Mouse Model for Plasmodium vivax to Test Interventions that Block Liver Stage to Blood Stage Transition and Blood Stage Infection. iScience 23, 101381 (2020); Schafer C, et al. A recombinant antibody against Plasmodium vivax UIS4 for distinguishing replicating from dormant liver stages. […] 17, 370 (2018)). Briefly, culture cells and liver tissue were fixed in 4% paraformaldehyde in TBS for 10 min (PHH) and 16 hours (liver sections). PHH were blocked and permeabilized in TBS with 2% bovine serum albumin and 0.2% Triton-X-100 (PBS/BSA/Triton). FRG huHep fixed livers were sectioned in 50 μm thick sections in a vibratome. […]

Plasmodium spp. = conditions: preclinical studies; cited from earlier work
P. vivax liver stages = test: P. vivax infection of FRG huHep mice, quantification of liver stages by IFA; format: in vivo, Plasmodium vivax
Description: as §1, with “Malar J” left out, “(2018)). IFA analysis of PHH and liver sections of FRG huHep mice was performed as described (Schafer C, et al. A Humanized Mouse Model for Plasmodium vivax to Test Interventions that Block Liver Stage to Blood Stage Transition and Blood Stage Infection. iScience 23, 101381 (2020); Schafer C, et al. A recombinant antibody against Plasmodium vivax UIS4 for distinguishing replicating from dormant liver stages. […] 17, 370 (2018)). Briefly, culture cells and liver tissue were fixed in 4% paraformaldehyde in TBS for 10 min (PHH) and 16 hours (liver sections). PHH were blocked and permeabilized in TBS with 2% bovine serum albumin and 0.2% Triton-X-100 (PBS/BSA/Triton). FRG huHep fixed livers were sectioned in 50 μm thick sections in a vibratome. Tissue sections were then permeabilized in 0.25% Triton X-100 and 3% H2O2 for 30 min followed by a blocking step in 5% skim milk in TBS for 1 hour at RT. […]” for “(2018)).”

[3] = group 4: intravenous infection, treated at 17 dpi, livers collected 21 dpi
[4] = group 5: 10 mg/kg at 14 dpi, euthanized 21 dpi

CS(=O)(=O)c1ccc(-c2cnc(N)c(-c3ccc(C(F)(F)F)nc3)c2)cc1 [MMV048]
activity against liver hypnozoites [1]: ineffective | parasite load, 18S rRNA in liver tissue by RT-qPCR (P. vivax; day 21, group 4): no differences | parasite load, 18S rRNA in liver tissue by RT-qPCR (P. vivax; mosquito bite and intravenous infection, treated at 4 dpi, analyzed 8 dpi): significantly reduced parasite load | hypnozoites by IFA [2]: resistance of hypnozoites to the drug | schizonts by IFA ([2]; compared to DMSO): no schizonts were observed; also recorded: removed schizonts | total extraerythrocytic forms (EEF) by IFA ([2]; compared to DMSO-treated cells): significant reduction | activity against asexual, transmission and liver stages (Plasmodium spp.): potent activity | number of schizonts in liver by IFA (P. vivax liver stages; 30 mg/kg intravenous, groups 2, 3 and 4, compared to control mice): significantly lower number of schizonts; also recorded: removed schizonts | hypnozoites in liver by IFA (P. vivax liver stages; [3]): only one hypnozoite was detected | schizonts in liver by IFA (P. vivax liver stages; [3]): no schizonts

COc1cc(C)c2c(Oc3cccc(C(F)(F)F)c3)c(OC)cc(NC(C)CCCN)c2n1 (stereo not drawn) [Tafenoquine]
parasite 18S rRNA in liver by RT-qPCR (P. vivax; [4]): presence of parasite 18S rRNA | liver forms by IFA (P. vivax liver stages; [4]): no liver forms were quantified
